{"source": "patent US8367838B2", "about": "“Amines or amino alcohols as GLYT1 inhibitors” (Hoffmann-La Roche Inc., priority 2009, dated 2013)", "note": "Structures can show the parent of a compound that is named as a salt.", "data": [{"molecular_target": "T1, mGlyT-1b (Mus musculus, UniProt P28571)", "T1 construct": "host or cells: Flp-in-CHO", "T1 sequence (P28571 1-651 isoform P28571-2)": "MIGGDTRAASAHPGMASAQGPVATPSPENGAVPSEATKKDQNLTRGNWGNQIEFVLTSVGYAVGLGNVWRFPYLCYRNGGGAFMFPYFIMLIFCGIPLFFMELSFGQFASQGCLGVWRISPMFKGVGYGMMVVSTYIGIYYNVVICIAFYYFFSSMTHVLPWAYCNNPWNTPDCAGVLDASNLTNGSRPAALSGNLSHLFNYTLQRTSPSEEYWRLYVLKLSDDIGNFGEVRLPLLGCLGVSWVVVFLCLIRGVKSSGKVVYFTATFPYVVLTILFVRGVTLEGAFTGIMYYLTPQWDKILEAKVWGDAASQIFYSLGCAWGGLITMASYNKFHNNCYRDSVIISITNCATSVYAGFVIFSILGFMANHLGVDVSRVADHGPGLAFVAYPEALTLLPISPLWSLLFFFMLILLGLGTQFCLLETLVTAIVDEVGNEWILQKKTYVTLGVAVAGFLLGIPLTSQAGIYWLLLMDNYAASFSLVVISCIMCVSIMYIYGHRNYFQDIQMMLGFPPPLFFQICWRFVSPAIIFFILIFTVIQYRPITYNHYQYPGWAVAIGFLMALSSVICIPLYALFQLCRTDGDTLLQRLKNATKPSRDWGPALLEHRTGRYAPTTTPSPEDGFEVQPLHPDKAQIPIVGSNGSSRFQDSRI", "assay": "Glycine uptake inhibition assay (mGlyT-1b), [3H]-glycine uptake in transfected Flp-in-CHO cells", "type": "cell-based", "settings": "Flp-in-CHO cells transfected with mGlyT-1b cDNA; [3H]-glycine 60 nM and 25 μM non-radioactive glycine; 20 min preincubation at 22° C.; read-out: IC50 (μM) at GlyT-1; Ic50 (hglyt1b)", "in_short": "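Flp-in CHO cells stably expressing mouse GlyT-1b were preincubated 20 min at 22 °C with inhibitor in pH 7.4 Hepes-Tris buffer. Uptake was then run with 60 nM [3H]-glycine plus 25 μM unlabeled glycine, with 10 mM glycine defining nonspecific uptake. Cell radioactivity was counted by scintillation to derive IC50.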", "units": {"IC50": "µM"}, "values": [{"smiles": "CC(C)Oc1ccc(F)c(-c2ccc([C@@H](O)[C@@H](N)c3ccc(Cl)c(Cl)c3)cc2)c1", "note": "(racemic) [Example 105, rac-erythro-2-Amino-2-(3,4-dichloro-phenyl)-1-(2′-fluoro-5′-isopropoxy-biphenyl-4-yl)-ethanol]", "IC50": 0.567}, {"smiles": "Nc1ccc(-c2ccc([C@@H](O)[C@@H](N)c3ccc(Cl)cc3)cc2)cn1", "note": "(racemic) [Example 69, rac-erythro-2-Amino-1-[4-(6-amino-pyridin-3-yl)-phenyl]-2-(4-chloro-phenyl)-ethanol]", "IC50": 0.217}, {"smiles": "Cc1nc(OC2CCOCC2)ccc1[C@@H](O)[C@@H](N)c1ccc(Cl)c(Cl)c1", "note": "(racemic) [Example 17, rac-erythro-[2-Amino-2-(3,4-dichloro-phenyl)-1-[2-methyl-6-(tetrahydro-pyran-4-yloxy)-pyridin-3-yl]-ethanoldihydrochloride]", "IC50": 0.043}, {"smiles": "Cc1nc(C)c(-c2ccc([C@@H](O)[C@@H](N)c3ccc(Cl)cc3)cc2)s1", "note": "(racemic) [Example 75, rac-erythro-2-Amino-2-(4-chloro-phenyl)-1-[4-(2,4-dimethyl-thiazol-5-yl)-phenyl]-ethanol]", "IC50": 0.582}, {"smiles": "N[C@@H](c1ccc(Cl)c(Cl)c1)[C@H](O)c1ccc(OC2CCOC2)nc1", "note": "(mixture of isomers) [Example 19, rac-erythro-[rac-2-Amino-2-(3,4-dichloro-phenyl)-1-[6-(tetrahydro-furan-3-yloxy)-pyridin-3-yl]-ethanoldihydrochloride]", "IC50": 0.082}, {"smiles": "N[C@@H](c1ccc(Cl)c(Cl)c1)[C@H](O)c1ccc(OCCC(F)(F)F)cc1", "note": "(racemic) [Example 52, rac-erythro-2-Amino-2-(3,4-dichloro-phenyl)-1-[4-(3,3,3-trifluoro-propoxy)-phenyl]-ethanol]", "IC50": 0.772}, {"smiles": "NC(=O)c1cccc(-c2ccc([C@@H](O)[C@@H](N)c3ccc(Cl)c(Cl)c3)cc2)c1", "note": "(racemic) [Example 104, rac-erythro-4′-[2-Amino-2-(3,4-dichloro-phenyl)-1-hydroxy-ethyl]-biphenyl-3-carboxylic acid amide]", "IC50": 0.056}, {"smiles": "N[C@@H](c1ccc(Cl)c(Cl)c1)[C@H](O)c1ccc(-c2cncc(F)c2)cc1", "note": "(single isomer, unassigned) [Example 8, (1R,2S or 1S,2R)-2-Amino-2-(3,4-dichloro-phenyl)-1-[4-(5-fluoro-pyridin-3-yl)-phenyl]-ethanol trifluoroacetate]", "IC50": 0.059}, {"smiles": "CS(=O)(=O)c1cccc(-c2ccc([C@@H](O)[C@@H](N)c3ccc(Cl)c(Cl)c3)cc2)c1", "note": "(racemic) [Example 7, rac-erythro-[2-Amino-2-(3,4-dichloro-phenyl)-1-(3′-methanesulfonyl-biphenyl-4-yl)-ethanol trifluoroacetate]", "IC50": 0.041}, {"smiles": "Cc1ccc([C@H](N)[C@H](O)c2ccc(OC(C)C)cc2)cc1Cl", "note": "(racemic) [Example 56, rac-erythro-2-Amino-2-(3-chloro-4-methylphenyl)-1-(4-isopropoxy-phenyl)-ethanol]", "IC50": 0.381}, {"smiles": "Cc1ccc([C@H](N)[C@H](O)c2ccc(-c3cncc(F)c3)cc2)cc1F", "note": "(racemic) [Example 94, rac-erythro-2-Amino-2-(3-fluoro-4-methyl-phenyl)-1-[4-(5-fluoro-pyridin-3-yl)-phenyl]-ethanol]", "IC50": 0.104}, {"smiles": "N[C@@H](c1ccc(Cl)c(Cl)c1)[C@H](O)c1ccc(OC2CCS(=O)(=O)CC2)cc1", "note": "(racemic) [Example 44, rac-erythro-[2-Amino-2-(3,4-dichloro-phenyl)-1-[4-(1,1-dioxo-hexahydro-1λ^6-thio-pyran-4-yloxy)-phenyl]-ethanol]", "IC50": 0.088}, {"smiles": "CS(=O)(=O)c1cccc(-c2cccc([C@@H](O)[C@@H](N)c3ccc(Cl)c(Cl)c3)c2)c1", "note": "(racemic) [Example 5, rac-erythro-[2-Amino-2-(3,4-dichloro-phenyl)-1-(3′-methanesulfonyl-biphenyl-3-yl)-ethanol trifluoroacetate]", "IC50": 0.615}, {"smiles": "N[C@@H](c1ccc(Cl)cc1)[C@H](O)c1ccc(-c2ccsc2)cc1", "note": "(racemic) [Example 70, rac-erythro-2-Amino-2-(4-chloro-phenyl)-1-(4-thiophen-3-yl-phenyl)-ethanol]", "IC50": 0.297}, {"smiles": "COc1cc([C@@H](O)[C@@H](N)c2ccc(Cl)c(Cl)c2)ccc1-c1cncc(F)c1", "note": "(racemic) [Example 3, rac-erythro-[2-Amino-2-(3,4-dichloro-phenyl)-1-[4-(5-fluoro-pyridin-3-yl)-3-methoxy-phenyl]-ethanoldihydrochloride]", "IC50": 0.186}, {"smiles": "C[Si](C)(C)c1ccc([C@@H](O)[C@@H](N)c2ccc(Cl)c(Cl)c2)cc1", "note": "(racemic) [Example 35, rac-erythro-[2-Amino-2-(3,4-dichloro-phenyl)-1-(4-trimethylsilanyl-phenyl)-ethanol trifluoroacetate]", "IC50": 0.298}, {"smiles": "CC(Oc1ccc([C@@H](O)[C@@H](N)c2ccc(Cl)cc2)cc1)C(F)(F)F", "note": "(mixture of isomers) [Example 102, rac-erythro-2-Amino-2-(4-chloro-phenyl)-1-[4-(2,2,2-trifluoro-1-methyl-ethoxy)-phenyl]-ethanol]", "IC50": 0.384}, {"smiles": "N[C@@H](c1ccc(Cl)c(Cl)c1)[C@H](O)c1ccc(Oc2ccccc2)cc1", "note": "(racemic) [Example 100, rac-erythro-2-Amino-2-(3,4-dichloro-phenyl)-1-(4-phenoxy-phenyl)-ethanol]", "IC50": 0.323}, {"smiles": "N[C@@H](c1ccc(Cl)c(Cl)c1)[C@H](O)c1ccc(OC2CCOCC2)cc1", "note": "(single isomer, unassigned) [Example 41, (1R,2S or 1S,2R)-[2-Amino-2-(3,4-dichloro-phenyl)-1-[4-(tetrahydro-pyran-4-yloxy)-phenyl]-ethanol]", "IC50": 0.021}, {"smiles": "CO[C@H](c1ccc(-c2cccnc2)cc1)[C@@H](N)c1ccc(Cl)c(Cl)c1", "note": "(racemic) [Example 98, rac-erythro-1-(3,4-Dichloro-phenyl)-2-methoxy-2-(4-pyridin-3-yl-phenyl)-ethylamine dihydrochloride]", "IC50": 0.388}, {"smiles": "CS(=O)(=O)c1cccc(-c2ccc([C@@H](O)[C@@H](N)c3ccc(Cl)c(Cl)c3)c(F)c2)c1", "note": "(single isomer, unassigned) [Example 6, (1R,2S or 1S,2R)-2-Amino-2-(3,4-dichloro-phenyl)-1-(3-fluoro-3′-methanesulfonyl-biphenyl-4-yl)-ethanol hydrochloride]", "IC50": 0.012}]}]}
